Data on 1 molecule can be found in patent publication US20230365570A1, “COMPOUNDS WITH GLUCOCORTICOID SPARING EFFECTS AND USES THEREOF” (The Regents of the University of California, priority 2020, published 2023).

Molecules are shown by their SMILES.

For data set [1], the system named is THP-1 cells. Kind of data set: IL-1ß stimulated TNF release by THP-1 cells. Format: cell-based, human. The conditions noted are these: THP-1 cells, IL-1ß 2 ng/ml, overnight (FIG. 3D). As to the method: (§1) THP-1 cells (10^5 cells/200 μL/well) and RA FLS (104/200 μL/well) were plated in 96 well plates and pre-treated with compound or vehicle for 1 h and then stimulated with either LPS (10 ng/ml), 1L-1ß (2 ng/ml) or TNF (2 ng/ml for THP-1 and 1 ng/ml for RA FLS). After 18 h of incubation, supernatants were collected and the levels of cytokines and chemokines in the culture supernatants were measured by ELISA according to the manufacturer's protocols (R&D systems, Minneapolis, MN).
The lead compounds belonging to chemotypes 1, 3, and 5 were tested for potency in suppressing chemokine and cytokine production by THP-1 cells in the presence of different inflammatory stimuli. The production of CXCL8 induced by either LPS (10 ng/ml), IL-1ß (2 ng/ml), or TNF (2 ng/ml) and TNF induced by IL-1ß (2 ng/ml) was assessed using serially diluted compounds. The compounds except 1-2 reduced the level of CXCL8 production stimulated by LPS in a dose dependent manner (FIG. 3A). However, the compounds from chemotype 5 enhanced CXCL8 release by THP-1 cells when stimulated with IL-111, or TNF (FIGS. 3B, C). […] The 1Cs0 for 1-1, 1-2 and 3-1 for IL-1ß stimulated CXCL8 release included 400, 1770, and 2020 nM, respectively, (FIG. 3C).

The next data set deals with RA FLS. Kind of data set: Cell viability of RA FLS by WST-8 assay. Format: cell-based, human. As to conditions: WST-8 assay (FIG. 6F). As to the method:
Two types of tetrazolium were used for viability assays. For THP-1 cells, the cells were dispensed in 96-well plates (10^5 cells/200 μL/ well) and treated with 5 Oil of each compound. After 18 h of incubation, 0.5 mg/ml 3[4,5-dimethylthiazol-2-yl]-2,5-dipheyl tetrazolium bromide (MTT; Thermo Fisher Scientific) in assay media was added to each well at a final concentration of (0.5 mg/ml) and further incubated for 4-6 h. The absorbances at 570 and 650 nm were measured by a Tecan Infinite M200 plate reader, For RA FLS, the cells were dispersed into 96-well flat bottom plates (104/200 μL/well) and incubated overnight. The next day, RA FLS were treated with 5 μM of each compound for 18 h of incubation. Ten μl of WST-8 [2-(2-methoxy-4-nitrophenyl)-3-(4-nitrophenyl)-5-(2,4-disulfophewnyl)-2H-tetrazolium, monosodium salt] solution was added to each well and the cells were further incubated for 2-4 h. The absorbance was measured at 450 nm with Bio-Rad iMark plate reader (Bio-Rad Laboratories Inc., Hercules, CA, Unites States).
(In general: Tetrazolium assays rely on reduction of a dye to a coloured formazan, in cell work by metabolically active cells.)

In data set [2] the test system is THP-1 cells. The experiment in a line: Combination and synergy of compounds with DEX, CXCL8 release by TNF stimulated THP-1 cells. Format: cell-based, human. The method, then:
Drug synergy analysis was performed using lsobologram plots which were calculated according to reported procedures to compute IC50 and determine synergism. IC50 is computed from the median effect equation. Synergism analysis is carried out using the Combination index (Cl)-isobol method. Data analysis was performed using the CompuSyn software available on combisyn.com, Detailed methodology was used as described in a prior report. Briefly, the median-effect equation is computed to obtain the linear regression for the effect of inhibitors DEX and 1−1 as Fa/Fu=(D/D50)^m, where D is the dose; Fa and Fu is the fraction of the inhibition and uninhibited response by the dose D (Fa+Fu=1); D50 is the dose producing the median effect (i.e, IC50). The constant m determines the shape of the dose-effect curve. The median-effect equation in logarithmic form is log (Fa/Fu) =m log(D)−m log (D50) which essentially represents a linear relationship between log(Fa/Fu) and log(D). […] This is followed by Cl-isobol method to quantitatively assess the synergism between these inhibitor drugs. A combination index (Cl) is estimated from dose-effect data of single and combined drug treatments. A value of C; less than one indicates synergism; Cl=1 indicates additive effect; and Cl>1 indicates antagonism. Drug interaction (synergism or antagonism) is more pronounced the further a CI value is from 1. […] The doses Dx1 and Dx2 were estimated from the median effect equation above for single drug treatments. From the median effect equation, the estimated dose (i.e., D) necessary to produce the inhibition (i.e., Fa, Fu) obtained by the combination was calculated. The results are presented as a normalized isobolograrn. A point in the isobologram represents the effect of a drug(s) treatment.
To assess whether the remaining candidate compounds would provide additional benefit to a low dose of glucocorticoid, THP-1 cells were stimulated with TNF and treated them with serially diluted compounds and 100 nM DEX (FIGS. 4A-C). […] Next whether there was an additive or synergistic effect with these three compounds and DEX was formally addressed. […] The four CXCL8 levels below the maximum plateau were used to calculate an isobologram (FIG. 5D).

For data set [3], the system named is THP-1 cells. Kind of data set: CXCL8 production by LPS stimulated THP-1 cells (ELISA). Format: cell-based, human. As to conditions: LPS 10 ng/ml, purchased compound, mean LPS CXCL8 201.1 pg/ml = 100%. As to the method: as §1
The 122 hit compounds underwent additional screening and were evaluated for their effects on cell viability and the ability to suppress production of an NF-κB-associated chemokine, CXCL8 (IL-8) by LPS stimulated THP-1 cells (FIG. 2D). The cells were also examined for viability after 24 h of stimulation by MTT assay (FIG. 2E).
Three of the eleven chemotypes were excluded based on the potential for them to be Michael acceptors, In many cases α,β-unsaturated carbonyls such as those found in these chemotypes can form adducts with thiols, especially under physiological conditions (pH=6-8), reducing the in vivo efficacy. Also, Michael acceptors are often […] IKKß inhibitors and thereby inhibit NF-KB response. […]

In data set [4] the target is metabotropic glutamate receptor subtype 4 (mGluR4) (Homo sapiens, UniProt Q14833). The conditions noted are these: previously described in another system; cited from earlier work.
metabotropic glutamate receptor subtype 4 (mGluR4), sequence (Q14833 33-912): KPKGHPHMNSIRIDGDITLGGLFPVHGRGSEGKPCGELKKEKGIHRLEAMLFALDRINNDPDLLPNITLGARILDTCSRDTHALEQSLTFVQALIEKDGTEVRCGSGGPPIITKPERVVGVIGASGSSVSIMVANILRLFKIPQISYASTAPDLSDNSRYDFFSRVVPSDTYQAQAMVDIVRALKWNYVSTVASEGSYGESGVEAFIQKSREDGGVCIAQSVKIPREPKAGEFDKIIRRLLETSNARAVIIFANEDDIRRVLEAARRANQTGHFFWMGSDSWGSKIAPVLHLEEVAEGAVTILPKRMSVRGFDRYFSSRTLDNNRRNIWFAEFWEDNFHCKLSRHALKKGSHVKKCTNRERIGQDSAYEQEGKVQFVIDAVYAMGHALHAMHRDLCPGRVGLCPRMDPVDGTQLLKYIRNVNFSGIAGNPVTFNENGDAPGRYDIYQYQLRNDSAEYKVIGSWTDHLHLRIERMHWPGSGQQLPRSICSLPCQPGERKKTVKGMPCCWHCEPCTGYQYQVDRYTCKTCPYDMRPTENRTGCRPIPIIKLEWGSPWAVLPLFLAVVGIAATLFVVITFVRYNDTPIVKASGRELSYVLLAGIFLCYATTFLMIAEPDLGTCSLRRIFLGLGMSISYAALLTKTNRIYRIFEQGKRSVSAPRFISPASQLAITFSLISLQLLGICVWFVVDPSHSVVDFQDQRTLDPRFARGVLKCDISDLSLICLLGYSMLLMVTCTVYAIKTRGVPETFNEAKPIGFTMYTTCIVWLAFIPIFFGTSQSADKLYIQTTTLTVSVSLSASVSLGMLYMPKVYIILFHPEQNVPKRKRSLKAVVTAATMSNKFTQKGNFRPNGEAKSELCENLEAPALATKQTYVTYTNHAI

For the molecule `Cc1ccc(-n2ncc3c(NC4CCCCC4)ncnc32)c(C)c1` [Compound 1-1], the IC50 in the data set with THP-1 cells [1] was 190 nM; with THP-1 cells [2] (TNF stimulated THP-1 cells, single agents (FIG. 5A), read-out: IC50 for TNF stimulated CXCL8 release (titration with DEX)), 968 nM. Besides, the “Cytotoxicity in RA FLS” value in the data set on RA FLS is on record as “low cytotoxicity”. Also, the “Effect of addition of DEX on CXCL8 production” value in the data set on THP-1 cells [2] (TNF 2 ng/ml stimulated THP-1 cells, serially diluted compound plus 100 nM DEX (FIGS. 4A-C)) is “significantly reduced the CXCL8 production at all of the effective doses”. The “Synergy with DEX, isobologram of potency ratios for CXCL8” value in the data set on THP-1 cells [2] (TNF stimulated THP-1 cells, compound and DEX titrated at same molarity (FIG. 5D)) was “demonstrating synergy”. The “CXCL8 production. Relative to LPS (purchased)” value in the data set on THP-1 cells [3] is on record as 47.1%. Moreover, in data set [4], the “Modulation of mGluR4” value is recorded as “positive allosteric modulator”.
